Laboratory results: US5622989A, “Amino-benzofuryl-and thienyl-derivatives” (Bayer Aktiengesellschaft, priority 1994, dated 1997)

Test system: human PMN
Experiment: Inhibition of FMLP-stimulated production of superoxide radical anions
Type: cell-based
Conditions: Neutrophil, neutrophils stimulated with 4×10^-8 M FMLP; for inhibition at 10 µM: 10 μM compound
Method: 1. Preparation of human PMN
Blood was taken from healthy subjects by venous puncture and neutrophils were purified by dextran sedimentation and resuspended in the buffered medium.
2. Inhibition of FMLP-stimulated production of superoxide racidal anions.
Neutrophils (2.5×10^5 ml^-1) were mixed with cytochrome C (1.2 mg/ml) in the wells of a microtitre plate. Compounds according to the invention were added in dimethyl sulphoxide (DMSO). Compound concentration ranged from 2.5 nM to 10 μM, the DMSO concentration was 0.1% v/v in all wells. After addition of cytochalasin b (5 μg×ml^-1) the plate was incubated for 5 min at 37° C. Neutrophils were then stimulated by addition of 4×10^-8 M FMLP and superoxide generation measured as superoxide dismutase inhibitable reduction of cytochrome C by monitoring the OD550 in a Thermomax microtitre plate spectrophotometer. Initial rates were calculated using a Softmax kinetic calculation programme. Blank wells contained 200 units of superoxide dismutase.
The inhibition of superoxide production was calculated as follows: [formula] Rx=Rate of the well containing the compound according to the invention. Ro=Rate in the control well.
Rb=Rate in the superoxide dismutase containing blank well.

Row | IC50 [nM] | Compound | inhibition at 10 µM [%]
1 | 420 | CSc1ccc(C(=O)c2oc3cc(NC(C)=O)ccc3c2CCC(=O)O)cc1 [Example 21] | 90
2 | 600 | COc1cccc(C(=O)c2oc3cc(NC(C)=O)ccc3c2CCC(=O)O)c1 [Example 24] | 68
